Our source for the DC50 values is patent publication US20230117034A1, “PYRAZOLOTRIAZINES” (Bayer Aktiengesellschaft, priority 2019, published 2023).

Molecules are shown by their SMILES.

This experiment addresses T1, CDK12 protein level in CAL-120 breast cancer cells (Homo sapiens, UniProt Q9NYV4).
T1 construct: endogenous in cells; host or cells: CAL-120 human breast cancer cells (DSMZ ACC 459)
The experiment can be described thus: CDK12 protein level: Protein Simple (CDK12, CAL-120). As to conditions: CAL-120 cells, 18 h with compound, CDK12/HSP90 peak area ratio vs vehicle, median, read-out: CDK12 protein level in CAL-120 breast ca cells, DC50-[mol/l] (median). It is filed as cell-based. In short, it runs like this: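 Cells grown 24 h, then treated with compounds for 18 h at 37° C against DMSO controls. Lysates (0.4 microgramms protein) run on Protein Simple 66-440 kDa size assay with CDK12 and HSP90 loading-control antibodies. CDK12/HSP90 peak-area ratios versus vehicle gave DC50 (50% reduction) by 4-parameter fit.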

T1 sequence (Q9NYV4 whole entry): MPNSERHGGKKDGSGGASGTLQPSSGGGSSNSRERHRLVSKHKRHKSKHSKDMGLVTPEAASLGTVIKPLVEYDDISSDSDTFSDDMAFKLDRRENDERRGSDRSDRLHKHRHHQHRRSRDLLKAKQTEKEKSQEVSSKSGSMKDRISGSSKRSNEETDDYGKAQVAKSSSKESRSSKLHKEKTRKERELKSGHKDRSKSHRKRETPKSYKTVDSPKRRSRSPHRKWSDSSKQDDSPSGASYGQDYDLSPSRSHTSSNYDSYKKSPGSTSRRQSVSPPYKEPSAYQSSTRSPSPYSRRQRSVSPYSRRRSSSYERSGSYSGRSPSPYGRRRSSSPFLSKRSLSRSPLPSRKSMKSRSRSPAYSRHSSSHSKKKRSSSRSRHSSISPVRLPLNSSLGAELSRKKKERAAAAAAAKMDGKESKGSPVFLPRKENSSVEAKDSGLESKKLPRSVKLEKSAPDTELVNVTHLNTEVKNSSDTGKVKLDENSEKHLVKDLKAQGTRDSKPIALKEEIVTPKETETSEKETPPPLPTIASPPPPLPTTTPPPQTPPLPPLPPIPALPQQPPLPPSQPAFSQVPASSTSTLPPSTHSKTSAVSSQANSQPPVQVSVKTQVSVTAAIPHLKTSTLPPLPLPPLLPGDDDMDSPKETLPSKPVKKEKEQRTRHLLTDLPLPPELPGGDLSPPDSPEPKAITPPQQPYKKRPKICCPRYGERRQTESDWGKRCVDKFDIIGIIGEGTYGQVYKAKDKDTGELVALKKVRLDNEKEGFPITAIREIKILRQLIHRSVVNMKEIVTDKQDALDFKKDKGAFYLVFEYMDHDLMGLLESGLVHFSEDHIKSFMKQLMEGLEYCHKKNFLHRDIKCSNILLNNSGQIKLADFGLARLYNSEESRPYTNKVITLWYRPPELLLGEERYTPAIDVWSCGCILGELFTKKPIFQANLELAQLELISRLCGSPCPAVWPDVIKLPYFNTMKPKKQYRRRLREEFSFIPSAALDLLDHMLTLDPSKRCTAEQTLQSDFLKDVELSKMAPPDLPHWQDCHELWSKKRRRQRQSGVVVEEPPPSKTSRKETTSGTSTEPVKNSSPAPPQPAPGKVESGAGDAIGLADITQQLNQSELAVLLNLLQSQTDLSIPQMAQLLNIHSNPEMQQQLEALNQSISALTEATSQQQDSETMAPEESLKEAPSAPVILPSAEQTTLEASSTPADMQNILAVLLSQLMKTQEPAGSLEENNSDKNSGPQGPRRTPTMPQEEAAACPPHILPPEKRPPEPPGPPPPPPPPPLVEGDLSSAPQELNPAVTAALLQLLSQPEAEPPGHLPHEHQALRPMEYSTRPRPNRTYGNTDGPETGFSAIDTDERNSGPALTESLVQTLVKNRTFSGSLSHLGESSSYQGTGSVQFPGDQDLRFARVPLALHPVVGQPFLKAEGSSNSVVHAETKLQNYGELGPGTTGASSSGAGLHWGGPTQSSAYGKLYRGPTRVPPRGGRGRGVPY
T1 sequence (O75909 whole entry partner): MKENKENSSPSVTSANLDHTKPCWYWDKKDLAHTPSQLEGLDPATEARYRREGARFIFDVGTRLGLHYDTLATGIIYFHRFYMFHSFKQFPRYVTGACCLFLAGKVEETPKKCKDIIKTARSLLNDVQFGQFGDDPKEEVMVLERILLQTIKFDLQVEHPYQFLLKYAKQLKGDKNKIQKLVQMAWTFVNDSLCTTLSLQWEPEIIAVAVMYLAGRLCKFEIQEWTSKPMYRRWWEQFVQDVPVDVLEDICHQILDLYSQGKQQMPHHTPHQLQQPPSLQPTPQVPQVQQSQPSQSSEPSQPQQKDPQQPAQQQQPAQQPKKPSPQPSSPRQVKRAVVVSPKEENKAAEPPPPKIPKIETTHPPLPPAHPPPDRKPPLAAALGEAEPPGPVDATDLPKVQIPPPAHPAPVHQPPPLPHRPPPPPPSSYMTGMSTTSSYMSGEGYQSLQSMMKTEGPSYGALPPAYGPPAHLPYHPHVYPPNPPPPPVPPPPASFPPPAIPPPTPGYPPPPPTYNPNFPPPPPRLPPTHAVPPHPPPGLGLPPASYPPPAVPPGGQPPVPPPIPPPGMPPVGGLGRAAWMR

With `Cc1[nH]c(CNc2nc(N3CCOCC3)nc3c(Br)cnn23)nc1-c1ccccc1` [Example 27, 8-bromo-N-[(5-methyl-4-phenyl-1H-imidazol-2-yl)methyl]-2-(morpholin-4-yl)pyrazolo[1,5-a][1,3,5]triazin-4-amine], the DC50 worked out at 0.0446 µM.

On to `Cc1ccnc2[nH]c(CNc3nc(N4CCOCC4)nc4c(C(C)C)cnn34)nc12` [Example 28, N-[(7-methyl-3H-imidazo[4,5-b]pyridin-2-yl)methyl]-2-(morpholin-4-yl)-8-(propan-2-yl)pyrazolo[1,5-a][1,3,5]triazin-4-amine], for which the DC50 was 0.00144 µM.

In the case of `Fc1ccc(-c2nnc(CNc3nc(N4CCOCC4)nc4c(Br)cnn34)[nH]2)cc1` [Example 29, 8-bromo-N-{[5-(4-fluorophenyl)-4H-1,2,4-triazol-3-yl]methyl}-2-(morpholin-4-yl)pyrazolo[1,5-a][1,3,5]triazin-4-amine], the DC50 is 0.00915 µM.

As for `CC(C)c1cnn2c(NCc3ncc(-c4ccccc4)[nH]3)nc(N3CCN(C)CC3)nc12` [Example 31, 2-(4-methylpiperazin-1-yl)-N-[(5-phenyl-1H-imidazol-2-yl)methyl]-8-(propan-2-yl)pyrazolo[1,5-a][1,3,5]triazin-4-amine], the DC50 was determined as 0.0109 µM.
